The values that follow come from patent US10385030B2, “Cationic lipid” (NOF CORPORATION, priority 2015, dated 2019).

Series [1] is described as follows: Particle size and surface potential of MENDs by dynamic light scattering (Experimental Example 6). Type of series: physicochemical. On the procedure: Various MENDs were prepared by the ethanol dilution method in [Experimental Example 1] (2), and DOPC was used as a phospholipid. PEG5000-DSG was used as a PEG lipid, and an amount corresponding to 5 mol % of the total lipid was added in Myr-C3M MEND, and an amount corresponding to 10 mol % was added in TS-PZ4C2 MEND.
pDNA solution (1 mg/mL), 100 mM malic acid buffer (pH 4.0), 5 M aqueous sodium chloride solution and sterilized water were mixed, and a solution having a final concentration of 0.1 mg/mL, 20 mM, 40 mM, respectively, was prepared and used as a DNA solution.
A lipid solution in ethanol was prepared by mixing 5 mM cationic lipid (L-PZ4C2, O-PZ4C2), 10 mM cholesterol (Chol), and 10 mM DOPC at desired ratios to achieve 840 nmol total lipid in a 5 mL tube, further adding PEG5000-DSG (1 mM ethanol solution) in an amount corresponding to 5 mol % of the total lipid, and adding ethanol to achieve a total amount of 200 μL (80% ethanol solution) and 20 mM malic acid buffer (pH 4.0). While stirring the lipid solution in a vortex mixer, the above-mentioned DNA solution (200 μL) was quickly added, after which 20 mM malic acid buffer (pH 4.0) (1600 μL) was added, phosphate buffered saline was added, and the mixture was diluted to an ethanol concentration of 8%. Similar operation was repeated three times and phosphate buffered saline was added to an ethanol concentration of 4%. Thereafter, using Amicon Ultra 15 (Millipore), the mixture was concentrated to about 200 μL by ultrafiltration under centrifugation condition (room temperature, 2267 rpm, 30 min). Thereafter, the mixture was diluted with phosphate buffered saline to 15 mL, and concentrated again by centrifugation (2267 rpm, for 30 min) under room temperature conditions. Finally, it was diluted to a desired lipid concentration with phosphate buffered saline.
The particle size and the surface potential were measured by the dynamic light scattering method (Zetasizer Nano).

The next series has as its system 4T1 tumor. Kind of series: Gene expression activity (gene delivery into tumor) in vivo (Experimental Example 8). Further details: species or system BALB/c mice. Particulars: MEND encapsulating pDNA, tail vein, 25 mg DNA, 48 hr; FIG. 6. As to the method: Various MENDs were prepared according to the method described in [Experimental Example 6]. Cancer-carrying mice were produced by subcutaneous administration of a suspension of mouse breast cancer-derived cancer cell line 4T1 cells (1×10^6 cells/mouse) to 6-week-old female BALB/c mice. At 7 days after the subcutaneous transplantation of the cancer cells, the prepared MEND solutions were administered each in an amount corresponding to […] from the tail vein. The mice were euthanized by a cervical spine […] method at 48 hr after the administration, the tumor was isolated and frozen with liquid nitrogen. The tumor was lysed in a Lysis buffer to prepare homogenate. The homogenate was centrifuged at 13,000 rpm, 10 min, 4° C., and the supernatant was collected and used as a measurement sample. The sample solution (20 μL) was mixed with a luciferase substrate (50 μL), and the luciferase activity was measured using Luminescenser-PSN (AB2200 ATTO). In addition, the concentration of the protein in the sample was quantified using a BCA protein assay kit, and the gene expression activity was measured as RLU/mg protein.

Series [2] can be described thus: Particle size and surface potential of MENDs by dynamic light scattering (Experimental Example 1). Type of series: physicochemical. As to the method: A solution of pDNA encoding luciferase gene and a protamine (manufactured by CALBIOCHEM) solution were diluted with 10 mM HEPES buffer to 0.15 mg/mL and 96.3 μg/mL, respectively. While stirring 0.15 mg/mL pDNA solution (100 μL), 96.3 μg/mL protamine (100 μL) was added dropwise in small portions to prepare an electrostatic complex of protamine and pDNA (N/P ratio=1.0) as a core of the vector.
A lipid solution in ethanol was prepared by mixing 5 mM cationic lipid (Myr-C3M), 5 mM phospholipid (SOPC) and 5 mM cholesterol (Chol) at desired ratios to achieve 330 nmol total lipid in an Eppendorf tube, further adding PEG2000-DSG (1 mM ethanol solution) in an amount corresponding to 3 mol % of the total lipid, and adding ethanol to achieve a total volume of 200 μL. While stirring the lipid solution in a vortex mixer, 200 μL of the nucleic acid electrostatic complex (10 mM HEPES; pH 5.3) prepared in [Experimental Example 1] (1) was quickly added, and thereafter 10 mM HEPES buffer (1.6 mL, adjusted to pH 5.3) was added. Furthermore, 10 mM HEPES buffer (2 mL) adjusted to pH 5.3 was added to dilute the mixture to an ethanol concentration of 5%. The mixture was concentrated to about 50 μL by ultrafiltration using Amicon Ultra 4 (Millipore) under centrifugation conditions (room temperature, 1000 g, 15 min). Thereafter, it was diluted to 4 mL with 100 mM HEPES buffer (adjusted to pH 7.4), and again concentrated by centrifugation (1000 g, 15 min) under room temperature conditions. Thereafter, it was diluted to 4 mL with 10 mM HEPES buffer (pH 7.4), and again concentrated by centrifugation (1000 g, 15 min) under room temperature conditions. Finally, it was diluted with 10 mM HEPES buffer (pH 7.4) to a desired lipid concentration.
pDNA solution (1 mg/mL), 100 mM malic acid buffer (pH 4.0), 5 M aqueous sodium chloride solution and sterilized water were mixed, and a solution having final concentrations of 0.1 mg/mL, 20 mM, 40 mM, respectively, was prepared and used as a DNA solution.
A lipid solution in ethanol was prepared by mixing 5 mM cationic lipid (TS-PZ4C2 or TS-C3M), and 10 mM cholesterol (Chol) at desired ratios to achieve 600 nmol total lipid in a 5 mL tube, further adding PEG2000-DMG (5 mM ethanol solution) in an amount corresponding to 3 mol % of the total lipid, and adding ethanol to achieve a total volume of 200 μL. While stirring the lipid solution in a vortex mixer, the above-mentioned DNA solution (300 μL) was quickly added, after which 20 mM malic acid buffer (pH 4.0, containing 100 mM sodium chloride) (500 μL) was added, and phosphate buffered saline was added to dilute the mixture to the ethanol concentration of 10%. Similar operation was repeated three times and phosphate buffered saline was added to an ethanol concentration of 5%. Thereafter, the mixture was concentrated to about 200 μL by ultrafiltration using Amicon Ultra 15 (Millipore, under centrifugation conditions (room temperature, 2267 rpm, 20 min). Thereafter, it was diluted to 15 ml with phosphate buffered saline, and again concentrated by centrifugation (2267 rpm, 20 min) under conditions of room temperature. Finally, it was diluted with phosphate buffered saline to a desired lipid concentration.
The particle size and the surface potential were measured by the dynamic light scattering method (Zetasizer Nano; Malvern Instruments Ltd.).

For series [3] the following is noted: compared to DOTAP, DODAP; known from patent document 1; cited from earlier work.
Setting [4] is: MEND of L-PZ4C2, cationic lipid:DOPC:Chol = 6:1:3, PEG5000-DSG 5 mol %.
Where [5] appears, read: MEND of TS-C3M, cationic lipid:Chol = 7:3, PEG2000-DMG 3 mol %.
Setting [6] is: MEND of O-PZ4C2, cationic lipid:DOPC:Chol = 6:1:3, PEG5000-DSG 5 mol %.
[7] abbreviates: MEND of Myr-C3M, cationic lipid:SOPC:Chol = 3:4:3, PEG2000-DSG 3 mol %.
Where [8] appears, read: MEND of Myr-C3M, cationic lipid:DOPC:Chol = 3:4:3, PEG5000-DSG 5 mol %.
[9] abbreviates: MEND of TS-PZ4C2, cationic lipid:Chol = 7:3, PEG2000-DMG 3 mol %.
[10] abbreviates: MEND of TS-PZ4C2, cationic lipid:Chol = 7:3, PEG5000-DSG 10 mol %.

“Also recorded” adds a separate entry of the source.

In series [1] (setting [4]), `CCCCC/C=C\C/C=C\CCCCCCCC(=O)OCCN1CCN(CCSSCCN2CCN(CCOC(=O)CCCCCCC/C=C\C/C=C\CCCCC)CC2)CC1` [L-PZ4C2] returned a PdI of 0.094, a particle size of 108.7 nm and a zeta potential of 0.144 mV. In addition, in the series with 4T1 tumor, the “gene delivery expression activity to tumor (luciferase activity, RLU/mg protein)” value was “higher gene delivery expression activity to tumor than the lipid membrane structures using the cationic lipids of Comparative Example 1”.

Consider `Cc1c(C)c2c(c(C)c1OC(=O)CCC(=O)OCCCN(C)CCSSCCN(C)CCCOC(=O)CCC(=O)Oc1c(C)c(C)c3c(c1C)CCC(C)(CCCC(C)CCCC(C)CCCC(C)C)O3)CCC(C)(CCCC(C)CCCC(C)CCCC(C)C)O2` (stereo not shown) [TS-C3M], for which, in series [2] (setting [5]), the PdI was 0.08, the particle size is reported as 141.3 nm and the zeta potential was −5.4 mV. The “nucleic acid delivery efficiency” value in series [3] is reported as “high nucleic acid delivery efficiency as compared to cationic lipids such as DOTAP, DODAP”.

On to `CCCCCCCC/C=C\CCCCCCCC(=O)OCCN1CCN(CCSSCCN2CCN(CCOC(=O)CCCCCCC/C=C\CCCCCCCC)CC2)CC1` [O-PZ4C2], for which, in series [1] (setting [6]), the PdI is 0.083, the particle size was 115.2 nm and the zeta potential was −0.294 mV. Also, the “gene delivery expression activity to tumor (luciferase activity, RLU/mg protein)” value in the series with 4T1 tumor is “higher gene delivery expression activity to tumor than the lipid membrane structures using the cationic lipids of Comparative Example 1”.

In the case of `CCCCCCCCCCCCCC(=O)OCCCN(C)CCSSCCN(C)CCCOC(=O)CCCCCCCCCCCCC` [Myr-C3M], in series [2] (setting [7]), the PdI was 0.188, the particle size is 128.3 nm and the zeta potential is 1.88 mV. Also, in series [1] (setting [8]), the PdI was 0.134, the particle size amounted to 113.9 nm and the zeta potential was −0.135 mV. Further, the “nucleic acid delivery efficiency” value in series [3] was “high nucleic acid delivery efficiency as compared to cationic lipids such as DOTAP, DODAP; also recorded: higher nucleic acid delivery efficiency as compared to conventional cationic lipids such as DOTAP, DODAP”.

In the case of `Cc1c(C)c2c(c(C)c1OC(=O)CCC(=O)OCCN1CCN(CCSSCCN3CCN(CCOC(=O)CCC(=O)Oc4c(C)c(C)c5c(c4C)CCC(C)(CCCC(C)CCCC(C)CCCC(C)C)O5)CC3)CC1)CCC(C)(CCCC(C)CCCC(C)CCCC(C)C)O2` (stereo not shown) [TS-PZ4C2], in series [2] (setting [9]), the PdI was 0.041, the particle size was 126.8 nm and the zeta potential is on record as −7.38 mV. In addition, in series [1] (setting [10]), the PdI was 0.121, the particle size came out at 104.8 nm and the zeta potential is −0.897 mV.
